Measured values from patent publication US9200071B2, “Methods of treating cancer using Notch1 and Notch3 antagonists” (Genentech, Inc., priority 2009, dated 2015).

Tests used:
Format in all cases: cell-based, human
P-12 Ichikawa cell line [1] = test: Cell cycle status by propidium iodide FACS (growth sensitivity); conditions: eight days; DAPT 5 μM, anti-NRR1 5 μg/ml; FIG. 3A-3D
Description: (§1) FIGS. 3-5 presents the classification of three representative human T-ALL cell lines. Those cell lines include the P-12 Ichikawa cell line, the HPB-ALL cell line, and the TALL-1 cell line. The cells were grown for eight days in control conditions (DMSO alone (the vehicle for DAPT) or anti-gD (an isotype control antibody)); in the presence of the gamma-secretase inhibitor, DAPT (5 μM); or in the presence of anti-NRR1 (5 μg/ml). The cells were fixed, stained with propidium iodide and prepared for FACS to analyze the cell cycle status, according to standard procedures. […] HPB-ALL cells are sensitive to both DAPT and anti-NRR1 (FIG. 4A-4D), with DAPT- and anti-NRR1-treated cells showing about 78% and 76% of cells in G0/G1, respectively, compared to about 33-34% of the control cells. TALL-1 cells are sensitive to DAPT but resistant to anti-NRR1 (FIG. 5A-5D), with about 87% of DAPT-treated cells in G0/G1, compared to about 55% of anti-NRR1-treated cells and about 53-54% of control cells. It is noted that Notch1 is not mutated in TALL-1 cells. […] (Data not shown and FIG. 10.)

[2] = tested on: activated Notch1 in HPB-ALL cells; test: Immunoblot of nuclear fractions with anti-Notch1 Val1744; conditions: FIG. 13 upper panel
Text: (§2) This new anti-Notch3 ICD antibody was then used to investigate the activation status of Notch3 in the three classes of T-ALL. […] 3T3 cells expressing Notch1 (3T3-N1) and MDA-MB-468 (MB468) cells were used as controls. Consistent with the growth inhibition studies described in the previous figures, TALL-1 expresses high levels of activated Notch3 but not activated Notch1 (compare TALL-1 lanes in lower and upper panels, respectively). Furthermore, production of activated Notch3 in TALL-1 could be blocked by DAPT but not anti-NRR1 (lower panel). Moreover, as expected, HPB-ALL cells express high levels of activated Notch1, which can be blocked by DAPT or anti-NRR1 antibody (see HPB-ALL lanes in upper panel). As to the controls, activated Notch1 is seen as a lighter, up-shifted band in the 3T3-N1 cells treated with Jagged (+jag) (upper panel).

TALL-1 cell line [3] = test: Cell diameter measurement (Vi-Cell cell counter); conditions: approximately one week; DAPT 5 μM, anti-NRR1 5 μg/ml; FIG. 6
Description: (§3) The P-12 Ichikawa cell line, the HPB-ALL cell line, and the TALL-1 cell line were grown for approximately one week in control conditions (DMSO alone (the vehicle for DAPT) or anti-gD (an isotype control antibody)); in the presence of the gamma-secretase inhibitor, DAPT (5 μM); or in the presence of anti-NRR1 (5 μg/ml). Cell diameter was measured using a cell counter (Vi-Cell, Beckman Coulter). Consistent with the growth inhibition studies, the P-12 Ichikawa line is resistant to both DAPT and anti-NRR1, as indicated by relatively consistent cell diameter among treated and control cells.

HPB-ALL cell line [4] = test: Cell diameter measurement (Vi-Cell cell counter); conditions: approximately one week; DAPT 5 μM, anti-NRR1 5 μg/ml; FIG. 6
Description: as §3

P-12 Ichikawa cell line [5] = test: Cell diameter measurement (Vi-Cell cell counter); conditions: approximately one week; DAPT 5 μM, anti-NRR1 5 μg/ml; FIG. 6
Description: as §3

[6] = tested on: activated Notch3 in TALL-1; test: Immunoblot of nuclear fractions with anti-Notch3 ICD antibody; conditions: TALL-1 nuclear fractions; FIG. 13 lower panel
Text: as §2

TALL-1 cell line [7] = test: Cell proliferation assay by Ki-67 staining FACS; conditions: approximately one week; DAPT 5 μM, anti-NRR1 5 μg/ml; FIG. 8 left panel
Description: (§4) The P-12 Ichikawa cell line, the HPB-ALL cell line, and the TALL-1 cell line were treated as described above for FIG. 6. The cells were analyzed by FACS using Ki-67 staining to mark proliferation (left panel). A shift in the FACS peak to the left indicates lower staining for Ki-67 and decreased proliferation, and conversely, a shift in the FACS peak to the right indicates higher staining for Ki-67 and increased proliferation. Based on this proliferation assay, HPB-ALL was sensitive to both DAPT and anti-NRR1, TALL-1 was sensitive to DAPT but not anti-NRR1, and P-12 Ichikawa cells were resistant to both. […] Low cell counts (i.e., low numbers of Annexin V/7-AAD double negative (non-apoptotic) cells) indicate increased apoptosis, which in turn correlate with decreased proliferation in the left hand panel.

HPB-ALL cell line [8] = test: Cell proliferation assay by Ki-67 staining FACS; conditions: approximately one week; DAPT 5 μM, anti-NRR1 5 μg/ml; FIG. 8 left panel
Description: as §4

P-12 Ichikawa cell line [9] = test: Cell proliferation assay by Ki-67 staining FACS; conditions: approximately one week; DAPT 5 μM, anti-NRR1 5 μg/ml; FIG. 8 left panel
Description: as §4

CCRF-CEM cells = test: Cell cycle status by propidium iodide FACS (growth sensitivity); conditions: eight days; DAPT 5 μM, anti-NRR1 5 μg/ml, anti-NRR3 10 μg/ml; FIG. 10A-10F
Description: as §1
(§5) As described above, two of the three classes of T-ALL, represented by HPB-ALL and TALL-1, are both sensitive to GSI but differ in that the former is sensitive to anti-NRR1, whereas the latter is not. […] To address this question, CCRF-CEM cells, HPB-ALL cells, and TALL-1 cells were treated as described for FIGS. 3-5, except that a Notch3-specific antagonist was also included at 10 μg/ml in a subset of the treatments to test whether growth depended on Notch3 signaling. The Notch3-specific antagonist used in these studies was mouse anti-human Notch3 monoclonal antibody 256A-4, the isolation and characterization of which are discussed in U.S. Patent Application Publication No. US 2008/0226621 A1. For convenience, 256A-4 is referred to herein as “anti-NRR3,” and is also referred to as “α-N3” in the figures.

TALL-1 cell line [10] = test: as above; conditions: eight days, DAPT 5 μM, anti-NRR1 5 μg/ml; for percentage of cells in G0/G1: control cells about 53-54%
Description: as §1, §5

HPB-ALL cell line [11] = test: as above; conditions: eight days, DAPT 5 μM, anti-NRR1 5 μg/ml
Description: as §1, §5

TALL-1 cell line [12] = test: Apoptosis by Annexin V / 7-AAD FACS; conditions: approximately one week; DAPT 5 μM, anti-NRR1 5 μg/ml; FIG. 7
Description: (§6) The P-12 Ichikawa cell line, the HPB-ALL cell line, and the TALL-1 cell line were treated as described above for FIG. 6. The cells were analyzed by FACS, with staining for 7-AAD (cell death marker) on the x-axis of FIG. 7, and staining for Annexin V (marker for apoptosis) on the y-axis of FIG. 7. […] In contrast, P-12 Ichikawa cells are resistant to both treatments, whereas TALL-1 cells are sensitive to DAPT but not to anti-NRR1.

HPB-ALL cell line [13] = test: Apoptosis by Annexin V / 7-AAD FACS; conditions: approximately one week; DAPT 5 μM, anti-NRR1 5 μg/ml; FIG. 7
Description: as §6

P-12 Ichikawa cell line [14] = test: Apoptosis by Annexin V / 7-AAD FACS; conditions: approximately one week; DAPT 5 μM, anti-NRR1 5 μg/ml; FIG. 7
Description: as §6

[15] = tested on: activated Notch3 in MDA-MB-468 cells; test: Immunoblot of MDA-MB-468 cells treated with anti-Notch3 agonist antibody; conditions: in the absence of DAPT, FIG. 13 lower panel
Text: as §2

[16] = anti-NRR3 10 μg/ml, FIG. 11A-11F

C[C@H](NC(=O)Cc1cc(F)cc(F)c1)C(=O)N[C@H](C(=O)OC(C)(C)C)c1ccccc1 [DAPT, N—[N-(3,5-difluorophenacetyl)-L-alanyl]-S-phenylglycine t-butyl ester]
growth sensitivity (cell cycle status) (P-12 Ichikawa cell line [1]): resistant
activated Notch1 levels (nuclear fraction immunoblot) [2]: blocked
cell diameter (cell size) versus control (TALL-1 cell line [3]): significantly smaller size
cell diameter (cell size) versus control (HPB-ALL cell line [4]): significantly smaller size
cell diameter (cell size) versus control (P-12 Ichikawa cell line [5]): resistant
production of activated Notch3 (nuclear fraction immunoblot) [6]: blocked
proliferation (Ki-67 staining) (TALL-1 cell line [7]): sensitive
proliferation (Ki-67 staining) (HPB-ALL cell line [8]): sensitive
proliferation (Ki-67 staining) (P-12 Ichikawa cell line [9]): resistant
growth sensitivity (cell cycle status) (CCRF-CEM cells): resistant
percentage of cells in G0/G1 (TALL-1 cell line [10]; anti-NRR3 10 μg/ml, FIG. 9A-9F): ~83%
growth sensitivity (cell cycle status) (TALL-1 cell line [10]; FIG. 5A-5D): sensitive
percentage of cells in G0/G1 (TALL-1 cell line [10]; FIG. 5A-5D): about 87%
growth sensitivity (cell cycle status) (HPB-ALL cell line [11]; [16]): sensitive
percentage of cells in G0/G1 (HPB-ALL cell line [11]; [16]): about 67%
growth sensitivity (cell cycle status) (HPB-ALL cell line [11]; FIG. 4A-4D): sensitive
percentage of cells in G0/G1 (HPB-ALL cell line [11]; FIG. 4A-4D, control cells about 33-34%): about 78%
apoptotic cell death (Annexin V/7-AAD double positive population) (TALL-1 cell line [12]): sensitive
apoptotic cell death (Annexin V/7-AAD double positive population) (HPB-ALL cell line [13]): increases apoptotic cell death
apoptotic cell death (Annexin V/7-AAD double positive population) (P-12 Ichikawa cell line [14]): resistant

B1: A13: anti-Notch3 agonist antibody described in US 2008/0118520 A1 as 256A-13 (antibody, V domains shown)
VH: SQVQLQQSGAELAKPGTSVKMACKASGYTFTTHWMNWVKQRPGQGLEWIGTINPSNDFTDCNQKFKDKAILTADKSSSTAYMQLSSLTSEDSAIYYCASGLTARAWFAYWGQGTLVTVSAA
VL: RATISCRASQSVTTSNYSYMHWFQQKPGQPPKLLIKYASNLDSGVPARFSGSGSGTDFTLNIHPVEEEDTATFYCQHSWEIPYTFGGGTNLEIKRADAAPTV
activated Notch3 band after agonist antibody treatment [15]: faint but detectable band
